Results: paper PMC11868595, “Safety, pharmacokinetics and efficacy of HA121-28 in patients with advanced solid tumors and RET fusion-positive non-small-cell lung cancer: a multicenter, open-label, single-arm phase 1/2 trial” (Signal Transduction and Targeted Therapy, 2025)

Tested on: patients with advanced solid tumors
Experiment: Phase 1 trial: adverse events (CTCAE), DLT and MTD
Format: in vivo, human
Description: The phase 1 trial was a two-part, multicenter, open-label, nonrandomized study to evaluate the safety and preliminary efficacy of HA121-28.
Safety, tolerability, and PK of HA121-28 was assessed in dose-escalation part. The single-patient accelerated titration was carried out at 25 mg and 50 mg; then, the dose escalation proceeded according to a “3 + 3” design in dose range of 100 to 800 mg. Escalation to a higher dose level was considered by the satisfactory review of safety results from the previous lower dose during the first cycle.
The dose-expansion part aims to further access the safety and efficacy of HA121-28 at the selected doses based on data from the dose-escalation part. The RP2D was determined by investigators in view of a thorough review of safety, PK, and efficacy results.
In phase 1 trial, during the dose-escalation part, patients first administered HA121-28 in a single ascending dose under the fasted state, then followed up for seven days. Then, patients received ascending doses of HA121-28 (q.d.) on a 21-day on and 7-day off treatment scheme for a 28-day cycle. For patients deemed beneficial from the treatment by investigators, treatment could remain until disease progression, or they discontinued from the study. In the dose-expansion part of phase 1, as well as phase 2, patients received HA121-28 (q.d.) at the selected doses on a 21-day on and 7-day off treatment scheme until disease progression, or they discontinued from the study.
Treatment-emergent adverse events (TEAEs) were documented during the entire study period. The predefined adverse event of special interest (AESI) was ≥ grade 3 prolonged QT interval. Tumor imaging was performed using contrast-enhanced computed tomography or magnetic resonance imaging at screening, Day 28 of the first cycle, then approximately every eight weeks till the end of the study for phase 1; in phase 2, imaging was scheduled at screening, and every eight weeks during the first 40 weeks, followed by every 12 weeks for the rest of the study period. RECIST 1.1 was used by the independent review committee or investigators for assessment of tumor response. After the original assessment, a repeated assessment was required around four weeks later to confirm a complete or partial response.
The primary endpoints of phase 1 were to investigate the MTD, dose-limiting toxicities, and the incidence and severity of TEAEs. Each TEAE was graded according to the Common Terminology Criteria for Adverse Events (CTCAE, version 5.0) and coded by Medical Dictionary for Regulatory Activities (MedDRA, version 21.0). The secondary endpoints included calculating PK parameters, assessing the ORR and DCR at the recommended dose by investigators as per RECIST 1.1. The exploratory endpoint was PFS.
If grade 2 or higher toxicity related to the study drug occurs in Groups 1 and 2 (as determined by the investigator), dose escalation will proceed using a 3+3 design starting from that dose level. If no DLT is observed at the 800 mg/d dose level after dose escalation, a meeting of investigators will be convened to decide whether to proceed with further dose escalation based on the available PK data, safety, and tolerability information.
5. Definition of DLT and MTD
The following events related to the study drug (including those that are definitely related, highly likely to be related, and possibly related):
(1) Grade 4 hematologic toxicity or grade 3 neutropenia accompanied by a fever of 38.5℃ or higher, or grade 3 thrombocytopenia accompanied by severe bleeding.
(2) Patients who discontinued the medication for more than 7 days due to unresolved toxicity reactions or who discontinued the medication more than twice due to toxicity […]
(3) In the context of supportive treatment, diarrhea of grade 2 lasting more than 7 days, or grade 3 diarrhea lasting more than 3 days.

## COc1cc2c(Nc3ccc(Br)cc3F)ncnc2cc1OCCCCN(C)C.Cl.Cl [HA121-28, N-(4-bromo-2-fluorophenyl)-7-(4-(dimethylamino)butoxy)-6-methoxy quinazolin-4-amine dihydrochloride]
Phase 1, 450 mg (N=79)
  Serious TEAE: Acute pancreatitis: 0 No. (%)
  Serious TEAE: Anal abscess: 0 No. (%)
  Serious TEAE: Any: 15 (19.0) No. (%)
  Serious TEAE: Aortic intramural hematoma: 0 No. (%)
  Serious TEAE: Arrhythmia: 1 (1.3) No. (%)
  Serious TEAE: Blood bilirubin increased: 0 No. (%)
  Serious TEAE: Blood creatinine increased: 0 No. (%)
  Serious TEAE: COVID-19: 0 No. (%)
  Serious TEAE: Cardiac tamponade: 1 (1.3) No. (%)
  Serious TEAE: Coronary artery atherosclerosis: 0 No. (%)
  Serious TEAE: Death: 1 (1.3) No. (%)
  Serious TEAE: Diarrhea: 0 No. (%)
  Serious TEAE: Drug eruption: 0 No. (%)
  Serious TEAE: Dyspnea: 0 No. (%)
  Serious TEAE: Embolism: 0 No. (%)
  Serious TEAE: Erythema multiforme: 0 No. (%)
  Serious TEAE: Headache: 0 No. (%)
  Serious TEAE: Hemoptysis: 2 (2.5) No. (%)
  Serious TEAE: Hydronephrosis: 0 No. (%)
  Serious TEAE: Hypertension: 1 (1.3) No. (%)
  Serious TEAE: Hypoalbuminemia: 0 No. (%)
  Serious TEAE: Intestinal obstruction: 1 (1.3) No. (%)
  Serious TEAE: Intra-abdominal fluid collection: 0 No. (%)
  Serious TEAE: Intracranial tumor hemorrhage: 0 No. (%)
  Serious TEAE: Liver injury: 0 No. (%)
  Serious TEAE: Lung adenocarcinoma: 0 No. (%)
  Serious TEAE: Malignant neoplasm progression: 1 (1.3) No. (%)
  Serious TEAE: Multiple organ dysfunction syndrome: 1 (1.3) No. (%)
  Serious TEAE: Nausea: 0 No. (%)
  Serious TEAE: Nephrolithiasis: 0 No. (%)
  Serious TEAE: Platelet counts decreased: 0 No. (%)
  Serious TEAE: Pleural effusion: 1 (1.3) No. (%)
  Serious TEAE: Pneumonia: 0 No. (%)
  Serious TEAE: Pneumonitis: 1 (1.3) No. (%)
  Serious TEAE: Prolonged QT interval: 0 No. (%)
  Serious TEAE: Pulmonary embolism: 0 No. (%)
  Serious TEAE: Pyrexia: 0 No. (%)
  Serious TEAE: Rash: 1 (1.3) No. (%)
  Serious TEAE: Rectal hemorrhage: 1 (1.3) No. (%)
  Serious TEAE: Respiratory failure: 0 No. (%)
  Serious TEAE: Seizure: 2 (2.5) No. (%)
  Serious TEAE: Septic shock: 0 No. (%)
  Serious TEAE: Sudden cardiac arrest: 0 No. (%)
  Serious TEAE: Sudden death: 0 No. (%)
  Serious TEAE: Upper respiratory tract infection: 1 (1.3) No. (%)
  Serious TEAE: Ventricular tachycardia: 0 No. (%)
  Serious TEAE: Vomiting: 0 No. (%)
  Serious TEAE: Weight loss: 0 No. (%)
  Serious TRAE: ALT increased: 0 No. (%)
  Serious TRAE: AST increased: 0 No. (%)
  Serious TRAE: Abdominal Pain: 0 No. (%)
  Serious TRAE: Abdominal distension: 0 No. (%)
  Serious TRAE: Acute cholecystitis: 0 No. (%)
  Serious TRAE: Acute pancreatitis: 0 No. (%)
  Serious TRAE: Anal abscess: 0 No. (%)
  Serious TRAE: Any: 9 (11.4) No. (%)
  Serious TRAE: Aortic intramural hematoma: 0 No. (%)
  Serious TRAE: Arrhythmia: 1 (1.3) No. (%)
  Serious TRAE: Blood bilirubin increased: 0 No. (%)
  Serious TRAE: Blood creatinine increased: 0 No. (%)
  Serious TRAE: COVID-19: 0 No. (%)
  Serious TRAE: Cardiac tamponade: 0 No. (%)
  Serious TRAE: Coronary artery atherosclerosis: 0 No. (%)
  Serious TRAE: Death: 0 No. (%)
  Serious TRAE: Diarrhea: 0 No. (%)
  Serious TRAE: Drug eruption: 0 No. (%)
  Serious TRAE: Dyspnea: 0 No. (%)
  Serious TRAE: Embolism: 0 No. (%)
  Serious TRAE: Erythema multiforme: 0 No. (%)
  Serious TRAE: Headache: 0 No. (%)
  Serious TRAE: Hemoptysis: 2 (2.5) No. (%)
  Serious TRAE: Hydronephrosis: 0 No. (%)
  Serious TRAE: Hypertension: 1 (1.3) No. (%)
  Serious TRAE: Hypoalbuminemia: 0 No. (%)
  Serious TRAE: Intestinal obstruction: 1 (1.3) No. (%)
  Serious TRAE: Intra-abdominal fluid collection: 0 No. (%)
  Serious TRAE: Intracranial tumor hemorrhage: 0 No. (%)
  Serious TRAE: Liver injury: 0 No. (%)
  Serious TRAE: Lung adenocarcinoma: 0 No. (%)
  Serious TRAE: Malignant neoplasm progression: 0 No. (%)
  Serious TRAE: Multiple organ dysfunction syndrome: 0 No. (%)
  Serious TRAE: Nausea: 0 No. (%)
  Serious TRAE: Nephrolithiasis: 0 No. (%)
  Serious TRAE: Platelet counts decreased: 0 No. (%)
  Serious TRAE: Pleural effusion: 0 No. (%)
  Serious TRAE: Pneumonia: 0 No. (%)
  Serious TRAE: Pneumonitis: 1 (1.3) No. (%)
  Serious TRAE: Prolonged QT interval: 0 No. (%)
  Serious TRAE: Pulmonary embolism: 0 No. (%)
  Serious TRAE: Pyrexia: 0 No. (%)
  Serious TRAE: Rash: 1 (1.3) No. (%)
  Serious TRAE: Rectal hemorrhage: 1 (1.3) No. (%)
  Serious TRAE: Respiratory failure: 0 No. (%)
  Serious TRAE: Seizure: 0 No. (%)
  Serious TRAE: Septic shock: 0 No. (%)
  Serious TRAE: Sudden cardiac arrest: 0 No. (%)
  Serious TRAE: Sudden death: 0 No. (%)
  Serious TRAE: Upper respiratory tract infection: 1 (1.3) No. (%)
  Serious TRAE: Ventricular tachycardia: 0 No. (%)
  Serious TRAE: Vomiting: 0 No. (%)
  Serious TRAE: Weight loss: 0 No. (%)
Phase 1, 600 mg (N=64)
  Serious TEAE: ALT increased: 2 (3.1) No. (%)
  Serious TEAE: AST increased: 2 (3.1) No. (%)
  Serious TEAE: Abdominal Pain: 0 No. (%)
  Serious TEAE: Abdominal distension: 0 No. (%)
  Serious TEAE: Acute cholecystitis: 0 No. (%)
  Serious TEAE: Acute pancreatitis: 1 (1.6) No. (%)
  Serious TEAE: Anal abscess: 1 (1.6) No. (%)
  Serious TEAE: Any: 17 (26.6) No. (%)
  Serious TEAE: Aortic intramural hematoma: 0 No. (%)
  Serious TEAE: Arrhythmia: 0 No. (%)
  Serious TEAE: Blood bilirubin increased: 1 (1.6) No. (%)
  Serious TEAE: Blood creatinine increased: 1 (1.6) No. (%)
  Serious TEAE: COVID-19: 0 No. (%)
